Data: ChEMBL document CHEMBL4304811, “Development of a Water-Soluble Indolylmaleimide Derivative IM-93 Showing Dual Inhibition of Ferroptosis and NETosis” (ACS Med Chem Lett, 2019)

Tests used:
[1] = test system: Phosphatidylinositol 4,5-bisphosphate 3-kinase catalytic subunit alpha isoform (Homo sapiens), P42336 [E545K]; experiment: Binding affinity to human partial length PIK3CA E545K mutant (R108 to N1068 residues) expressed in mammalian expression system assessed as residual binding level at 10 uM by Kinomescan method relative to control
Sequence of Phosphatidylinositol 4,5-bisphosphate 3-kinase catalytic subunit alpha isoform (Homo sapiens), P42336 [E545K] (P42336 whole entry E545K, the tested form may be a part, canonical isoform): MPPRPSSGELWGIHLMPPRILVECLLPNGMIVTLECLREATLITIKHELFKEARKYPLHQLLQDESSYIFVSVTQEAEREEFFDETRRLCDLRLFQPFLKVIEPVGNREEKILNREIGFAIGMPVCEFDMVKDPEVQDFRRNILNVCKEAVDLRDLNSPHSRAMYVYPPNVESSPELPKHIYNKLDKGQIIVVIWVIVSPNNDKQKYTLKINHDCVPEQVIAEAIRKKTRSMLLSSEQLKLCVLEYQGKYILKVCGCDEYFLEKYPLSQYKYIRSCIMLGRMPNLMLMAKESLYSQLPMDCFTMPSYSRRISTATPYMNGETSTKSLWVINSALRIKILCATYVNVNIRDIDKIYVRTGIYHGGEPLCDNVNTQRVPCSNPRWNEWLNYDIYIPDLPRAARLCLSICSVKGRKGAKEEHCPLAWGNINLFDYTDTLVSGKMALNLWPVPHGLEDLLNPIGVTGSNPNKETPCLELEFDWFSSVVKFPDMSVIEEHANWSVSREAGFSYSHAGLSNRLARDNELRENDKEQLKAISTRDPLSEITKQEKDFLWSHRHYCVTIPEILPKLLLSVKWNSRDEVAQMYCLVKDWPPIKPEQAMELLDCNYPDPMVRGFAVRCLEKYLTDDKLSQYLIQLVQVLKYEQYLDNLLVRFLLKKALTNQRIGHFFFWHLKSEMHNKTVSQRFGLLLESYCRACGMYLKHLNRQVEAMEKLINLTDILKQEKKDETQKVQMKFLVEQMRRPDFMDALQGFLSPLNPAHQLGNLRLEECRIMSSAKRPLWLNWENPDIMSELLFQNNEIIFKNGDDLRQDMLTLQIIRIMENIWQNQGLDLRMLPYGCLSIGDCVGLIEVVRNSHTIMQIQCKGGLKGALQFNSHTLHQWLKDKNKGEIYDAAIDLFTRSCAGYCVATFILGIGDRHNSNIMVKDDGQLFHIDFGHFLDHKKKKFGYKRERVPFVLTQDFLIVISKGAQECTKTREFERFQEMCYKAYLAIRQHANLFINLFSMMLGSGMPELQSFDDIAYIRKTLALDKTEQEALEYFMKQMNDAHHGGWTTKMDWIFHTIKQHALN

[2] = molecular target: Calcium/calmodulin-dependent protein kinase type 1G (Homo sapiens) (UniProt Q96NX5); experiment: Binding affinity to wild-type human partial length CAMK1G (M1 to A342 residues) expressed in bacterial expression system assessed as residual binding level at 10 uM by Kinomescan method relative to control
Sequence of Calcium/calmodulin-dependent protein kinase type 1G (Homo sapiens) (Q96NX5 whole entry, the tested form may be a part): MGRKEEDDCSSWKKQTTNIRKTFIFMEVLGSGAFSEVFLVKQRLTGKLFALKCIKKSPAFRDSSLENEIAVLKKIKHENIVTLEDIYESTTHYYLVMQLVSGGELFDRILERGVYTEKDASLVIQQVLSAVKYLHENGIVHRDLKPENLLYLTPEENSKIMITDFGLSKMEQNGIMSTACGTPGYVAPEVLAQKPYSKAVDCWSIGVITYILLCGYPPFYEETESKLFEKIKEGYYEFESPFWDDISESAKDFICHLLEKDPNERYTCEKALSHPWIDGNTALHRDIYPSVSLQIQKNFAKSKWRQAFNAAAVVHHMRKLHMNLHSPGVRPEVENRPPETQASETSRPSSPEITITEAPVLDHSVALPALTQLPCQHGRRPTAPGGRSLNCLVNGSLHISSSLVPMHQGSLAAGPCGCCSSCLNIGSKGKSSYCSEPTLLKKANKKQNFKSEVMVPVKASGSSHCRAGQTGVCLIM

[3] = molecular target: Myosin light chain kinase 2, skeletal/cardiac muscle (Homo sapiens) (UniProt Q9H1R3); experiment: Binding affinity to wild-type human partial length MYLK2 (D258 to K570 residues) expressed in bacterial expression system assessed as residual binding level at 10 uM by Kinomescan method relative to control
Sequence of Myosin light chain kinase 2, skeletal/cardiac muscle (Homo sapiens) (Q9H1R3 whole entry, the tested form may be a part): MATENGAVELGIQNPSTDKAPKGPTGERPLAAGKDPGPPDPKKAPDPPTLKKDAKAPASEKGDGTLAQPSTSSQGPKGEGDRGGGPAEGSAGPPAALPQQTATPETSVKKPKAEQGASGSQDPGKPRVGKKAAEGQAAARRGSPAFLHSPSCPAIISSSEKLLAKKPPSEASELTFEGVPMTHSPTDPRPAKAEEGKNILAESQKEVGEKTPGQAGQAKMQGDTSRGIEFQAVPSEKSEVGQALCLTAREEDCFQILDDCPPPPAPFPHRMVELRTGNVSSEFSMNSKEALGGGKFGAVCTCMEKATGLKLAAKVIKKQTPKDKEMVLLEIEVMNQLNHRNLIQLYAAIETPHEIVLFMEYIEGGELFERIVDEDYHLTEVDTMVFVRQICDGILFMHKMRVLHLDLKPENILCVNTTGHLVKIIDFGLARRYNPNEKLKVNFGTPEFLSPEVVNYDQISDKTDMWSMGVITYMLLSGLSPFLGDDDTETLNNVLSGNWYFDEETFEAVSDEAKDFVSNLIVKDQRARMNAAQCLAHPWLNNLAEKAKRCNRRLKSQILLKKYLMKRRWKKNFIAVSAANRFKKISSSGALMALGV

[4] = molecular target: Serine/threonine-protein kinase Chk1 (Homo sapiens) (UniProt O14757); experiment: Binding affinity to wild-type human partial length CHEK1 (M1 to G289 residues) expressed in bacterial expression system assessed as residual binding level at 10 uM by Kinomescan method relative to control
[5] = molecular target: Serine/threonine-protein kinase 16 (Homo sapiens) (UniProt O75716); experiment: Binding affinity to wild-type human partial length STK16 (G11 to I305 residues) expressed in bacterial expression system assessed as residual binding level at 10 uM by Kinomescan method relative to control
Sequence of Serine/threonine-protein kinase 16 (Homo sapiens) (O75716 whole entry, the tested form may be a part): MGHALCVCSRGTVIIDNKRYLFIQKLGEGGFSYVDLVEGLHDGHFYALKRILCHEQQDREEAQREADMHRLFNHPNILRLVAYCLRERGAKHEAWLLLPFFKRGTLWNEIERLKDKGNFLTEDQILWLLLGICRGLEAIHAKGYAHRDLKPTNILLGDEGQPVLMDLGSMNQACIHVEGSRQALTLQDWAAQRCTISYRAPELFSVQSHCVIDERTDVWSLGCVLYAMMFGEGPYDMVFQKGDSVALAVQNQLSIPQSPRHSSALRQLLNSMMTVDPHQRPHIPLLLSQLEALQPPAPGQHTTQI

[6] = test system: Proto-oncogene tyrosine-protein kinase receptor Ret (Homo sapiens), P07949 [V804L]; experiment: Binding affinity to human partial length RET V804L mutant (E713 to D1014 residues) expressed in bacterial expression system assessed as residual binding level at 10 uM by Kinomescan method relative to control
[7] = molecular target: Testis-specific serine/threonine-protein kinase 1 (Homo sapiens) (UniProt Q9BXA7); experiment: Binding affinity to wild-type human full length TSSK1B (M1 to Q367 residues) expressed in bacterial expression system assessed as residual binding level at 10 uM by Kinomescan method relative to control
[8] = molecular target: Protein kinase C eta type (Homo sapiens) (UniProt P24723); experiment: Binding affinity to wild-type human partial length PRKCH (S324 to P683 residues) expressed in bacterial expression system assessed as residual binding level at 10 uM by Kinomescan method relative to control
[9] = test system: Epidermal growth factor receptor (Homo sapiens), P00533 [UNDEFINED MUTATION]; experiment: Binding affinity to human partial length EGFR S752-I759del mutant expressed in bacterial expression system assessed as residual binding level at 10 uM by Kinomescan method relative to control
[10] = molecular target: Ribosomal protein S6 kinase alpha-1 (Homo sapiens) (UniProt Q15418); experiment: Binding affinity to wild-type human partial length N-terminal RSK1 Kinase domain 1 (M1 to E388 residues) expressed in bacterial expression system assessed as residual binding level at 10 uM by Kinomescan method relative to control
[11] = molecular target: Serine/threonine-protein kinase BRSK1 (Homo sapiens) (UniProt Q8TDC3); experiment: Binding affinity to wild-type human partial length BRSK1 (M1 to E754 residues) expressed in bacterial expression system assessed as residual binding level at 10 uM by Kinomescan method relative to control
[12] = molecular target: Dual specificity mitogen-activated protein kinase kinase 5 (Homo sapiens) (UniProt Q13163); experiment: Binding affinity to wild-type human partial length MEK5 (L98 to P448 residues) expressed in mammalian expression system assessed as residual binding level at 10 uM by Kinomescan method relative to control
[13] = molecular target: Serine/threonine-protein kinase 36 (Homo sapiens) (UniProt Q9NRP7); experiment: Binding affinity to wild-type human partial length STK36 (M1 to T271 residues) expressed in bacterial expression system assessed as residual binding level at 10 uM by Kinomescan method relative to control
[14] = molecular target: Rhodopsin kinase GRK7 (Homo sapiens) (UniProt Q8WTQ7); experiment: Binding affinity to wild-type human full length GRK7 (M1 to L553 residues) expressed in mammalian expression system assessed as residual binding level at 10 uM by Kinomescan method relative to control
Sequence of Rhodopsin kinase GRK7 (Homo sapiens) (Q8WTQ7 whole entry, the tested form may be a part): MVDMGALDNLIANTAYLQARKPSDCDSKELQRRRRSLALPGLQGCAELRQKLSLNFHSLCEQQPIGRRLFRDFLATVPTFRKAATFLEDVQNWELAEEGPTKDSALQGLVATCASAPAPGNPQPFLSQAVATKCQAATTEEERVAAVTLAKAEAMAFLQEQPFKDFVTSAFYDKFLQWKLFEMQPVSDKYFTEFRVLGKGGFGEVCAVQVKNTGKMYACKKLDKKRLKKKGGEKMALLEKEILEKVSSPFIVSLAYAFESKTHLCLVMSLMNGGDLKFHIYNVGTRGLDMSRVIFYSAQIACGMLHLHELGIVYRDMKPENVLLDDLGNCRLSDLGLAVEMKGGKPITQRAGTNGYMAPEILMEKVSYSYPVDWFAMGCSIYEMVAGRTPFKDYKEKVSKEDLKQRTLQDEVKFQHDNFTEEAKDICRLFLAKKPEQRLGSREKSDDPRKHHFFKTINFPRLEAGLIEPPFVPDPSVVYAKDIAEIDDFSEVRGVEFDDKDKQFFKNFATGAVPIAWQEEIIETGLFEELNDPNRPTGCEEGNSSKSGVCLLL

[15] = molecular target: Receptor-interacting serine/threonine-protein kinase 4 (Homo sapiens) (UniProt P57078); experiment: Binding affinity to wild-type human partial length RIPK4 (M1 to V303 residues) expressed in mammalian expression system assessed as residual binding level at 10 uM by Kinomescan method relative to control
[16] = test system: Tyrosine-protein kinase ABL1 (Homo sapiens), P00519 [H396P]; experiment: Binding affinity to human phosphorylated ABL1 H396P mutant (S229 to K512 residues) expressed in mammalian expression system assessed as residual binding level at 10 uM by Kinomescan method relative to control
[17] = molecular target: Serine/threonine-protein kinase PLK1 (Homo sapiens) (UniProt P53350); experiment: Binding affinity to wild-type human partial length PLK1 (A33 to F325 residues) expressed in mammalian expression system assessed as residual binding level at 10 uM by Kinomescan method relative to control
[18] = molecular target: Myotonin-protein kinase (Homo sapiens) (UniProt Q09013); experiment: Binding affinity to wild-type human partial length DMPK (V47 to V415 residues) expressed in bacterial expression system assessed as residual binding level at 10 uM by Kinomescan method relative to control
[19] = molecular target: ALK tyrosine kinase receptor (Homo sapiens) (UniProt Q9UM73); experiment: Binding affinity to wild-type human partial length ALK (I1088 to E1409 residues) expressed in mammalian expression system assessed as residual binding level at 10 uM by Kinomescan method relative to control
Sequence of ALK tyrosine kinase receptor (Homo sapiens) (Q9UM73 19-1620 limits assumed): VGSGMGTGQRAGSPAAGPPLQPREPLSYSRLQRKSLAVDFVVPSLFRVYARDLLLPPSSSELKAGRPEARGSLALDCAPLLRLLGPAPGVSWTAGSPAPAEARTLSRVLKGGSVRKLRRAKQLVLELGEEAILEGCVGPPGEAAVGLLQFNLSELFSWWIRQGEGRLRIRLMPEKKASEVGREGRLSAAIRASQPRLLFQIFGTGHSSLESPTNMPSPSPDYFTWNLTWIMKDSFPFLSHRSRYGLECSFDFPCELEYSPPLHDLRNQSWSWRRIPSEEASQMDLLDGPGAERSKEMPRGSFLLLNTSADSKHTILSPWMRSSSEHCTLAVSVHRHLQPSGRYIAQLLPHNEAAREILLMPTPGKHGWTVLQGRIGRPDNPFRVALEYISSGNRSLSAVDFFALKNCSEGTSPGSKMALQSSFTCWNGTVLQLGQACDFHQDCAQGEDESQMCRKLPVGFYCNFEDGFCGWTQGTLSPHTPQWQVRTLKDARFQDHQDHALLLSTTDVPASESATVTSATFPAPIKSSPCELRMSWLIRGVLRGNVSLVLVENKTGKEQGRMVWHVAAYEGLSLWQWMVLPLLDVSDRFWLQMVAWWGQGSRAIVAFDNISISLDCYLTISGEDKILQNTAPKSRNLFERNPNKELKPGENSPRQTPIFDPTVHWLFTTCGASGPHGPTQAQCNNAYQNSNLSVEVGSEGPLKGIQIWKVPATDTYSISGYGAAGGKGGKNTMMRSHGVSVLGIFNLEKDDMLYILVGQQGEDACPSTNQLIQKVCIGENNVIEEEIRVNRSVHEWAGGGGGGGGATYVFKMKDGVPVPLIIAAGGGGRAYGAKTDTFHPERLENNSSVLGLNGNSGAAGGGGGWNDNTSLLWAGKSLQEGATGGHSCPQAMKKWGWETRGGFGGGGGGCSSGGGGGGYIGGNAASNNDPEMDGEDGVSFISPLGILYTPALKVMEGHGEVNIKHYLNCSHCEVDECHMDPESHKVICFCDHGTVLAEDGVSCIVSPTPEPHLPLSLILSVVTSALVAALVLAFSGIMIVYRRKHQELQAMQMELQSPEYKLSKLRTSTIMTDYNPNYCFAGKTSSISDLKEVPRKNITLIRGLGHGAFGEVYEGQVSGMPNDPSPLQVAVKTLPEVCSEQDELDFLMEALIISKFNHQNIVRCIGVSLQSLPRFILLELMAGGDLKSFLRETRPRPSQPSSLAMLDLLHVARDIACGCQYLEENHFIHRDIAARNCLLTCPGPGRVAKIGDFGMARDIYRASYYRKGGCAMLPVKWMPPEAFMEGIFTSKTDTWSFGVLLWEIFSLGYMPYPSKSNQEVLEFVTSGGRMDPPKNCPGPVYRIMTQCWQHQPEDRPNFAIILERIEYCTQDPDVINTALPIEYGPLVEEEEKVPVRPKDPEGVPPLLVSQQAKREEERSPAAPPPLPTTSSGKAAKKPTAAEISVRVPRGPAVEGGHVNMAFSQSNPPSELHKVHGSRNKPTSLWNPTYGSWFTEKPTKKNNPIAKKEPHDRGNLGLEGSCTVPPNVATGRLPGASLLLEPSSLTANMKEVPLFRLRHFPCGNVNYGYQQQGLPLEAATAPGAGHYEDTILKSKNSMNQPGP

[20] = molecular target: Mitogen-activated protein kinase kinase kinase 1 (Homo sapiens) (UniProt Q13233); experiment: Binding affinity to wild-type human partial length MAP3K1 (L1202 to W1512 residues) expressed in mammalian expression system assessed as residual binding level at 10 uM by Kinomescan method relative to control
[21] = molecular target: Serine/threonine-protein kinase OSR1 (Homo sapiens) (UniProt O95747); experiment: Binding affinity to wild-type human full length OSR1 (M1 to S527 residues) expressed in mammalian expression system assessed as residual binding level at 10 uM by Kinomescan method relative to control
[22] = test system: Mast/stem cell growth factor receptor Kit (Homo sapiens), P10721 [V559D,T670I]; experiment: Binding affinity to human partial length KIT V559D/T670I double mutant (Y545 to D952 residues) expressed in bacterial expression system assessed as residual binding level at 10 uM by Kinomescan method relative to control
[23] = molecular target: Mitotic checkpoint serine/threonine-protein kinase BUB1 (Homo sapiens) (UniProt O43683); experiment: Binding affinity to wild-type human partial length BUB1 (Q724 to K1085 residues) expressed in mammalian expression system assessed as residual binding level at 10 uM by Kinomescan method relative to control
[24] = molecular target: Serine/threonine-protein kinase 25 (Homo sapiens) (UniProt O00506); experiment: Binding affinity to wild-type human partial length YSK1 (V14 to H295 residues) expressed in bacterial expression system assessed as residual binding level at 10 uM by Kinomescan method relative to control
Sequence of Serine/threonine-protein kinase 25 (Homo sapiens) (O00506 whole entry, looked up, the tested form may be a part): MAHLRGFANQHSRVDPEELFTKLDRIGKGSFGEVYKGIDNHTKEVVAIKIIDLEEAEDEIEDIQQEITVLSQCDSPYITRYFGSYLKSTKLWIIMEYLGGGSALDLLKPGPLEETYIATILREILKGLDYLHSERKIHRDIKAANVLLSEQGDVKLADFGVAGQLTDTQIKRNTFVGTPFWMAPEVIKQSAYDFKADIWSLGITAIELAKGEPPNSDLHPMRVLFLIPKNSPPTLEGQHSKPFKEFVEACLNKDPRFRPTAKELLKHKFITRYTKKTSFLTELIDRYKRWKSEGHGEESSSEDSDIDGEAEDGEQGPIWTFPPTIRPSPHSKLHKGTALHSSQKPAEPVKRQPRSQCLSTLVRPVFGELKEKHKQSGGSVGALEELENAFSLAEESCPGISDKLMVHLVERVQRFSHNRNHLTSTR

CC(C)N1C(=O)C(NCCCN(C)C)=C(c2cn(C)c3ccccc23)C1=O.Cl
Activity [1]: 93% | Activity [2]: 95% | Activity [3]: 100% | Activity [4]: 100% | Activity [5]: 99% | Activity [6]: 90% | Activity [7]: 100% | Activity [8]: 99% | Activity [9]: 97% | Activity [10]: 98% | Activity [11]: 85% | Activity [12]: 77% | Activity [13]: 98% | Activity [14]: 97% | Activity [15]: 100% | Activity [16]: 93% | Activity [17]: 85% | Activity [18]: 100% | Activity [19]: 100% | Activity [20]: 68% | Activity [21]: 77% | Activity [22]: 100% | Activity [23]: 92% | Activity [24]: 94%
